Results reported in patent US7960397B2, “6,9-disubstituted purine derivatives and their use as cosmetics and cosmetic compositions” (Institute of Experimental Botany, Academy of Sciences of …, priority 2007, dated 2011).
Like-named read-outs stand apart in the source and are kept apart here.

Tests used:
[1] = test system: cytokinin-dependent tobacco callus Nicotiana tabacum L. cv. Wisconsin 38; assay: Cytokinin activity in tobacco callus bioassay; format: cell-based; details: for concentration with highest activity: growth of tobacco callus, four weeks of cultivation, tested 10^−8 M to 10^−4 M; for Activity (%) [10^−5 mol · l^−1 BAP = 100%]: increase of fresh callus weight at the concentration with highest activity, 10^−5 M BAP = 100%
[2] = test system: Amaranthus caudatus cotyledon/hypocotyl explants; assay: Amaranthus bioassay (betacyanin content); set-up: species or system Amaranthus caudatus var. atropurpurea; details: for concentration with highest activity: betacyanin content after 48 h incubation, tested 10^−8 M to 10^−4 M; for Activity (%) [10^−5 mol · l^−1 BAP = 100%]: betacyanin content at the concentration with highest activity, 10^−5 M BAP = 100%
Summary of the method: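 Amaranthus caudatus explants (cotyledons plus hypocotyl) from 72 h dark-grown seedlings were incubated in darkness on medium with 10 mmol Na2HPO4–KH2PO4 pH 6.8, 5 mmol tyrosine and test compound; stock was 10^−3 M in DMSO/water. Betacyanin was measured as A537−A620 and activity expressed relative to 10^−5 M BAP (100%).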

excised wheat leaf tips = assay: Antisenescence test, retention of chlorophyll in excised wheat leaf tips; set-up: species or system Triticum aestivum cv. Hereward; details: for activity (%) [10^−4 mol · l^−1 BAP = 100%]: retention of chlorophyll in excised wheat leaf tips at the concentration with highest activity, 10 replicate determinations; for concentration with highest activity: retention of chlorophyll in excised wheat leaf tips, tested range 10^−8 M to 10^−4 M, 96 h in the dark at 25° C.
Summary of the method: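 Winter wheat seedlings (Triticum aestivum cv. Hereward) were raised on vermiculite with Knop's solution at 25° C. for 7 days. Tips of the first leaf, 35 mm long (five tips, 100 mg combined), stood in […] of test solution in microtiter wells. After 96 h in the dark at 25° C., chlorophyll was extracted in 80% ethanol at 80° C. and read at 665 nm. Activity is relative to 10^−4 M BAP (100%).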

[3] = test system: human diploid fibroblasts (HCA cells, HCA20, HCA40, HCA60); assay: Senescent cells (β-galactosidase staining) in culture of human fibroblasts; format: cell-based; details: for SENESCENT CELLS (%) HCA20: human fibroblasts passage 20 (HCA20); for SENESCENT CELLS (%) HCA40: human fibroblasts passage 40 (HCA40); for SENESCENT CELLS (%) HCA60: human fibroblasts passage 60 (HCA60)
Protocol: In this example, human diploid fibroblasts (HCA cells of various passage levels: passage 20—designated HCA20; passage 40—designated HCA40; passage 60—designated HCA60) were stained for β-galactosidase activity. The medium used for the cell cultivation was removed, the cells were washed twice in […], and fixed in 2-3 ml of fixing solution comprised of a 2% formaldehyde and 0.2% glutaraldehyde in PBS. The cells were incubated at room temperature for 5 minutes, and then washed twice with PBS. The cells were subsequently incubated at 37° C.

[4] = test system: promyelocytic HL-60 leukemia; assay: In vitro cytotoxicity, Calcein AM assay; details: read-out: GI50 HL60
Protocol: (§1) Because only metabolically active cells cleave Calcein AM, these assays detect viable cells exclusively. The quantity of reduced Calcein AM corresponds to the number of vital cells in the culture.
(§2) The cells were maintained in Nunc/Corning 80 cm^2 plastic tissue culture flasks and cultured in cell culture medium (DMEM with 5 g/l glucose, 2 mM glutamine, 100 U/ml penicillin, 100 mg/ml streptomycin, 10% fetal calf serum and sodium bicarbonate).
(§3) The cell suspensions that were prepared and diluted according to the particular cell type and the expected target cell density (2,500-30,000 cells per well based on cell growth characteristics) were added by pipette (80 ml) into 96-well microtiter plates. Inoculates were allowed a pre-incubation period of 24 hours at 37° C. and 5% CO2 for stabilization. Four-fold dilutions of the intended test concentration were added at time zero in 20 ml aliquots to the microtiter plate wells. Usually, the compound tested was evaluated at six 4-fold dilutions. […] All drug concentrations were examined in duplicate. Incubations of cells with the tested compounds lasted for 72 hours at 37° C., in a 5% CO2 atmosphere and 100% humidity. At the end of the incubation period, the cells were assayed by using Calcein AM. Ten microliters of the stock solution were pipetted into each well and incubated for 1 hour. Fluorescence (FD) was measured with the Labsystem FIA Reader Fluoroscan Ascent (UK).

[5] = test system: breast carcinoma cell line MCF-7; assay: In vitro cytotoxicity, Calcein AM assay; details: read-out: GI50 MCF7
Protocol: as §1, §2, §3

mouse fibroblasts NIH3T3 = assay: In vitro cytotoxicity, Calcein AM assay; details: read-out: GI50 NIH-3T3
Protocol: as §1, §2, §3

human osteosarcoma HOS = assay: In vitro cytotoxicity, Calcein AM assay; details: read-out: GI50 HOS
Protocol: as §1, §2, §3

[6] = test system: Human T-lymphoblastic leukemia cell line CEM; assay: In vitro cytotoxicity, Calcein AM assay; details: read-out: GI50 CEM
Protocol: as §1, §2, §3

Structure (SMILES) | concentration with highest activity [1] | Activity (%) [10^−5 mol · l^−1 BAP = 100%] [1] [%] | concentration with highest activity [2] | Activity (%) [10^−5 mol · l^−1 BAP = 100%] [2] [%] | activity (%) [10^−4 mol · l^−1 BAP = 100%] (excised wheat leaf tips) [%] | concentration with highest activity (excised wheat leaf tips) | SENESCENT CELLS (%) HCA20 [3] [%] | SENESCENT CELLS (%) HCA40 [3] [%] | SENESCENT CELLS (%) HCA60 [3] [%] | GI50 ([4]; HL60, 72 hours, Calcein AM) [µM] | GI50 ([5]; MCF7, 72 hours, Calcein AM) [µM] | GI50 (mouse fibroblasts NIH3T3; NIH-3T3, 72 hours, Calcein AM) [µM] | GI50 (human osteosarcoma HOS; HOS, 72 hours, Calcein AM) [µM] | GI50 ([6]; CEM, 72 hours, Calcein AM) [µM] | GI50 ([4]; Homo sapiens, HL-60, 72 h) [µM] | GI50 ([5]; Homo sapiens, MCF7, 72 h) [µM] | GI50 (mouse fibroblasts NIH3T3; Mus musculus, NIH3T3, 72 h) [µM] | GI50 (human osteosarcoma HOS; Homo sapiens, 72 h) [µM] | GI50 ([6]; Homo sapiens, 72 h) [µM]
COc1ccc(CNc2ncnc3c2ncn3C2CCCCO2)cc1O (stereo not shown) | 10^−6 mol · l^−1 | 55 | 10^−4 mol · l^−1 | 41 | 47 | 10^−4 mol · l^−1 | 5 | 7 | 29 | > 167 | > 167 | > 167 | > 167 | – | – | – | – | – | –
CCOC(C)n1cnc2c(NC/C=C(\C)CO)ncnc21 (stereo not shown) | 10^−4 mol · l^−1 | 102.8 | 10^−4 mol · l^−1 | 92.5 | 92.5 | 10^−4 mol · l^−1 | – | – | – | > 167 | > 167 | > 167 | > 167 | – | – | – | – | – | –
C/C(=C\CNc1ncnc2c1ncn2CCCCCl)CO | 10^−4 mol · l^−1 | 103.5 | 10^−4 mol · l^−1 | 123.8 | 73.8 | 10^−4 mol · l^−1 | – | – | – | > 167 | > 167 | > 167 | > 167 | – | – | – | – | – | –
C/C(=C\CNc1ncnc2c1ncn2C1CCCO1)CO (stereo not shown) | 10^−5 mol · l^−1 | 89 | 10^−4 mol · l^−1 | 117 | 45 | 10^−4 mol · l^−1 | – | – | – | > 167 | > 167 | > 167 | > 167 | – | – | – | – | – | –
Cc1cc(Nc2ncnc3c2ncn3C2CCCCO2)ccc1O (stereo not shown) [4-hydroxy-3-methylanilino / tetrahydropyran-2-yl] | 10^−5 mol · l^−1 | 12 | 10^−4 mol · l^−1 | 15 | 7 | 10^−4 mol · l^−1 | 3 | 4 | 19 | > 167 | > 167 | > 167 | > 167 | – | – | – | – | – | –
Cc1cc(CNc2ncnc3c2ncn3C2CCCCO2)ccc1O (stereo not shown) [4-hydroxy-3-methylbenzylamino / tetrahydropyran-2-yl] | 10^−5 mol · l^−1 | 4 | 10^−4 mol · l^−1 | 7 | 9 | 10^−4 mol · l^−1 | 4 | 6 | 22 | > 167 | > 167 | > 167 | > 167 | > 167 | – | – | – | – | –
Cc1cc(Nc2ncnc3c2ncn3C2CCCCO2)ccc1O (stereo not shown) [4-hydroxy-5-methylanilino / tetrahydropyran-2-yl] | 10^−5 mol · l^−1 | 10 | 10^−4 mol · l^−1 | 17 | 10 | 10^−4 mol · l^−1 | 4 | 4 | 18 | > 167 | > 167 | > 167 | > 167 | – | – | – | – | – | –
Oc1ccc(CNc2ncnc3c2ncn3CCCCCl)cc1 [4-hydroxybenzylamino / 4-chlorobutyl, 6-(4-hydroxybenzylamine)-9-(4-chlorobutyl)purine] | – | – | 10^−4 mol · l^−1 | 33.4 | 33.4 | 10^−4 mol · l^−1 | – | – | – | > 167 | > 167 | > 167 | > 167 | – | – | – | – | – | –
Oc1ccc(CNc2ncnc3c2ncn3C2CCCO2)cc1 (stereo not shown) [6-(4-hydroxybenzylamino)-9-(tetrahydrofuran-2-yl)-purine] | 10^−5 mol · l^−1 | 27 | 10^−4 mol · l^−1 | 13 | 3 | 10^−4 mol · l^−1 | 5 | 5 | 16 | – | – | – | – | – | > 167 | > 167 | > 167 | > 167 | –
C/C(=C\CNc1ncnc2nc[nH]c12)CO [6-((E)-4-hydroxy-3-methylbut-2-enylamino)purine, reference compound] | – | 86.9 | – | 116 | 28.3 | – | – | – | – | – | – | – | – | – | > 167 | > 167 | > 167 | > 167 | > 167
C/C(=C\CNc1ncnc2c1ncn2C1CCCCO1)CO (stereo not shown) [6-(E)-(4-hydroxy-3-methylbut-2-en-1-ylamino)-9-(tetrahydropyran-2-yl)purine] | 10^−5 mol · l^−1 | 96.5 | 10^−4 mol · l^−1 | 299.4 | 38.2 | 10^−4 mol · l^−1 | – | – | – | – | – | – | – | – | > 167 | > 167 | > 167 | > 167 | > 167
CCOCCn1cnc2c(NCc3ccc(O)cc3)ncnc21 [Compound 133, 6-(4-hydroxybenzylamine)-9-(1-ethoxyeth-2-yl)purine] | – | – | – | – | – | – | – | – | – | > 167 | > 167 | > 167 | > 167 | – | – | – | – | – | –
